Source: patent US6291694A, “Process and intermediates useful to produce vitamin D analogs” (Hoffman-La Roche Inc., priority 2000, dated 2001)

Experiment: pKa of alcohol additive in water
Assay type: physicochemical

Compound | pKa in water
OC(c1cccc(C(O)(C(F)(F)F)C(F)(F)F)c1)(C(F)(F)F)C(F)(F)F [Formula 16, 1,3-bis(1,1,1,3,3,3, -hexafluoro-2-hydroxypropyl)benzene] | 8.48
CC(O)(C(F)(F)F)C(F)(F)F [formula 15a] | 9.51
OC(C(F)(F)F)C(F)(F)F [formula 15b] | 9.13
OC(c1ccccc1)(C(F)(F)F)C(F)(F)F [formula 15c, 1,1,1,3,3,3-hexafluoro-2-phenyl-2-propanol] | 8.52
OC(C(F)(F)F)(C(F)(F)F)C(F)(F)F [formula 15d, perfluoro-t-butanol] | 5.18
